Ends that are not written are not given here.
Tests used:
isolated platelets = assay: Platelet loading of Alexa647-labeled peptides, decrease in fluorescence in supernatant; type: cell-based; conditions: for fluorescence of supernatant, complete versus loaded measurements (platelet loading): Alexa647-labeled peptides co-incubated with isolated platelets at 37° C. for one hour, FIG. 1A; for loading of attached cargo into platelets, loaded condition normalized to its complete condition: FIG. 1B
Experimental: Alexa647-labeled peptides or Alexa647 alone were co-incubated with isolated platelets at 37° C. for one hour to allow for platelet loading. The respective platelet-loading ability was indicated by a decrease in fluorescence in supernatant following the incubation. For controls, identical experiments were performed without the incubation period (noted as “complete” in the figure). Platelets following co-incubation were then centrifuged at 800 g for 10-minutes to separate platelets from supernatant (noted as “loaded” in the figure).
FIG. 1B represents the data in FIG. 1A normalized for each peptide experiment, i.e., normalization of a loaded condition to its complete condition.

[1] = tested on: alpha granules of platelets; assay: Confocal microscopy, colocalization of Alexa647-labeled peptides with PF4; type: cell-based; conditions: for loading into alpha granules of platelets (Alexa647 intensities per ROI): ROIs selected on PF4 intensity, FIG. 2B
Experimental: To confirm that the Alexa647-labeled GAG-binding peptides were loaded into alpha granules of platelets, confocal microscopy was used. The platelets that were centrifuged in the experiments of FIG. 1A and FIG. 1B, were fixed in 2% paraformaldehyde and settled onto glass coverslips. After permeabilization, immunofluorescence staining was performed against PF4, which is a marker for alpha granules of platelets. Platelets were stained with Alexa568-secondary antibody. Images were collected through a Nikon-A1 laser-scanning microscope equipped with a 60× oil objective lens.
FIG. 2A are representative images with PF4 staining shown in red (left column) and the Alexa647 signal (from the free Alexa647, Alexa647-labeled GAG-binding peptide, or Alexa647-labeled CFL; middle column) shown in purple. Images were only adjusted for brightness and contrast for display. n>5 images were acquired for each experiment and regions of interest (ROIs) were selected based on PF4 intensity.
The Alexa647 intensities for each ROI were measured using ImageJ and plotted in box and whisker graph using Prism 8.

[2] = tested on: murine hemangioendothelioma cells (EOMA); assay: Sequestration of bFGF by GAGs on EOMA cells; type: cell-based; conditions: monolayer culture, standard or tumor conditioned media; FIG. 20
Text: FIG. 20 is a graph showing sequestration of growth factors by glycosaminoglycans (GAGs) on the surface of murine hemangioendothelioma cells (EOMA). Here, the cells growing in monolayer tissue culture conditions either under standard media conditions or in surrogate tumor environment using tumor conditioned media, sequester bFGF onto the GAGS on platelets and endothelial cells, and thus remove it from the supernatant. […] Values represent means and SE of 5 wells.

EOMA cells and platelets = assay: Immunofluorescence, aggregation of platelet PF4 on EOMA cells; type: cell-based, murine; conditions: FIG. 22
Experimental: Platelet factor 4 (PF4) has one of the highest affinities for HS occurring in nature and can occupy GAG sites and displace other HS binding growth factors. As such, PF4 acts as an inhibitor of tumor growth. FIG. 22 are immunofluorescent images showing that platelets form a provisional matrix that can exchange proteins with endothelial cells upon tumor activation. Murine hemangioendothelioma cells (EOMA) cells were grown in standard media (DMEM+10% FBS), and normal platelets were added. Under normal conditions (top row), PF4 (the main content of platelets α-granules; green and left column) is seen at the periphery (i.e., along the membrane) of the EOMA cells as the platelets aggregate along the cell membrane. Heparan sulphate (red, second from left column) is distributed throughout the membranous surface of the endothelial cell, and DAPI (blue, second from right column) is the nuclear counterstain. In absence of tumor conditioned media, thrombin or other activators of endothelial cell, there is no clumping and aggregation of the platelets. […] However, upon incubation of EOMA cells and platelets in presence of tumor conditioned media (second row), the expression of HS is increased, and a thick platelet provisional matrix is formed as shown by the aggregation of PF4 on the HS rich surface EOMA cell; this platelet provisional matrix is used by EOMA cells for growth. […]

[3] = Isothermal titration calorimetry (ITC) of GAG-binding peptides; conditions: for affinity for chondroitin sulfate A (dissociation constants by ITC): 22° C., 5 mM Tris-HCl pH 7.35, 1% DMSO, FIG. 3E, 3F
Experimental: FIG. 3A is a schematic depicting the isothermal titration calorimetry (ITC) experiments performed in this example. Here, chondroitin sulfate A (CSA) was used to test affinities of illustrative GAG-binding peptides for glycosaminoglycan. 3 mM CSA was loaded into a syringe and CSA was titrated into the sample cell withholding a 0.25 mM solution of GAG-binding peptide or a charge-free ligand (CFL), which served as a negative control. Temperature was set at 22° C., the buffer was 5 mM Tris-HCl (pH 7.35), and 1% DMSO.
FIG. 3B to FIG. 3D show graphical representations of ITC dissociation kinetics for CSA titrated into cells withholding PAL1 (FIG. 3B), PAL2 (FIG. 3C), and CFL (FIG. 3D).
The data obtained during the experiments of FIG. 3B and FIG. 3C were used to determine dissociation constants for the CSA and GAG-binding peptide interactions; these were determined through titration curve fitting using sequential binding model.
(§1) Additionally, the binding affinities for the two illustrative GAG-binding peptides, PAL1 and PAL2, to Heparan Sulfate (HS) and Chondroitin Sulfate (CSA) was determined using affinity chromatography. […] The dissociation constants were measured using ITC, the higher it is, the looser the binding is. […] The binding was measured by the elution volume on a Hi-Trap Heparin column attached to a FPLC system. The later the peak occurs, the tighter the binding is. In FIG. 4A, the peptide amino acid sequences including the control peptide (CFL) and the two PALs (PAL1 and PAL2) are shown.

[4] = Affinity chromatography of peptides, Hi-Trap Heparin column on FPLC; type: binding; conditions: PAL1 versus PAL2; FIG. 4C
Experimental: as §1

[5] = tested on: alpha-granule subsets of platelets; assay: Confocal microscopy, subcellular localization of Alexa647-labelled PAL1 and PAL2 against VEGF and PF4; type: cell-based; conditions: Alexa647-labelled peptides, FIG. 24; for loading into alpha-granule subsets: VEGF and PF4 markers; for preferred colocalization with alpha-granule subset marker: VEGF/PAL and PF4/PAL merged
Experimental: FIG. 24 are immunofluorescent images showing that PAL1 and PAL2 have different subcellular localizations, i.e., have a preference for distinct alpha-granules. Using VEGF as the marker of one alpha-granule set (green) and PF4 as the marker of the second alpha-granule set (red), the subcellular localization of Alexa647-labelled PAL1 and PAL2 (blue) were recorded on Nikon-Al confocal microscope.
The images FIG. 24 were acquired using Nikon-A1 confocal microscope equipped with a 60× oil immersed objective. PAL1 and PAL2 partially colocalize with both subsets of the alpha-granules as indicated by the cyan and purple pixels in the merged images. To quantify the difference between PAL1 and PAL2, the fractionation of loaded platelets were performed

platelet α-granule = assay: Confocal microscopy, loading of Alexa647-PAL1 conjugated Lucitanib; type: cell-based; conditions: one hour at 37° C.; FIG. 26A
Experimental: Platelets were co-incubated with Alexa647-labled Lucitanib or with Alexa647-PAL1 conjugated Lucitanib for one hour at 37° C. The platelets were then spun for 10-minutes at 800 g, fixed in 2% paraformaldehyde, and settled onto glass coverslips. After permeabilization, immunofluorescence staining was performed against PF4 in platelets and further stained with Alexa568-secondary antibody. The images were collected through a Nikon-Al laser-scanning microscope equipped with a 60× oil objective. FIG. 26A includes representative images in which immunofluorescence for PF4 was shown in red and Alexa647 was shown in blue. […] FIG. 26B is a graph showing the averaged intensities of Alexa647 channel for >800 ROIs in each group were analyzed using ImageJ and the error bar is the standard deviation of the mean.

[6] = tested on: platelets (platelet rich plasma); assay: FACS analysis of growth factor uptake by platelets; type: cell-based; conditions: pretreatment of platelet rich plasma; FGF, PF4, VEGF, TPO; all but thrombopoietin; FIG. 15B
Text: (Inh=inhibitor added, PF4 receptor, a splice variant of the chemokine receptor CXCR3, known as CXCR3B).

Question: For EGGIWFPYGGF [CFL, reference compound], which “fluorescence of supernatant, complete versus loaded measurements (platelet loading)” value (isolated platelets) is on record?
Answer: did not change

Question: What about the “loading of attached cargo into platelets, loaded condition normalized to its complete condition” value (isolated platelets) of the same compound?
Answer: unable to direct loading of the cargo into platelets

Question: What about the “loading into alpha granules of platelets (Alexa647 intensities per ROI)” value [1] of the same compound?
Answer: do not load into platelets

Question: What about the “colocalization of alpha granule marker PF4 and Alexa647 signal” value ([1]; merged images, FIG. 2A) of the same compound?
Answer: Co-localization was not observed

Question: What does the source list for Heparin?
Answer: sequestration of bFGF from the supernatant onto GAGs [2]: further enhance the phenomenon; aggregation of platelet PF4 on the HS rich surface of EOMA cells (EOMA cells and platelets): inhibited

Question: With RFRWPYRIREF [PAL2] as the compound, how does the “fluorescence of supernatant, complete versus loaded measurements (platelet loading)” value (isolated platelets) read?
Answer: decrease in absorbance

Question: And the “loading of attached cargo into platelets, loaded condition normalized to its complete condition” value (isolated platelets)?
Answer: facilitates loading of an attached cargo into platelets

Question: And the “loading into alpha granules of platelets (Alexa647 intensities per ROI)” value [1]?
Answer: facilitates loading of an attached cargo into alpha granules of platelets

Question: And the “affinity for chondroitin sulfate A (dissociation constants by ITC)” value [3]?
Answer: high affinity

Question: What about the “relative binding to HS (elution volume on Hi-Trap Heparin column)” value [4] of the same compound?
Answer: binds HS tighter than PAL1

Question: What about the “loading into alpha-granule subsets” value [5] of the same compound?
Answer: loaded to both the subsets of alpha-granules

Question: What about the “preferred colocalization with alpha-granule subset marker” value [5] of the same compound?
Answer: colocalized more to the PF4 channel

Question: With thrombin as the compound, how does the “sequestration of bFGF from the supernatant onto GAGs” value [2] read?
Answer: released from the GAGs into the supernatant

Question: What about the “aggregation of platelet PF4 on the HS rich surface of EOMA cells” value (EOMA cells and platelets) of the same compound?
Answer: reproduced

Question: With “Alexa647-labelled PAL1 conjugated-Lucitanib: Lucitanib conjugated with Alexa647-labelled PAL1 (SEQ ID NO: 1) (ERRIWFPYRRF; also: Alexa647 label, conjugated to Lucitanib, sites not given here)” as the compound, how does the “colocalization with PF4 / loading into α-granules” value (platelet α-granule) read?
Answer: colocalization

Question: Which “growth factor uptake by platelets” value [6] does the source give for `Cc1cc(N)c2cc(NC(=O)Nc3ccc4nc(C)cc(N)c4c3)ccc2n1` [surfen] here?
Answer: significantly inhibits growth factor uptake by platelets

Question: With ERRIWFPYRRF [PAL1] as the compound, how does the “fluorescence of supernatant, complete versus loaded measurements (platelet loading)” value (isolated platelets) read?
Answer: decrease in absorbance

Question: What about the “loading of attached cargo into platelets, loaded condition normalized to its complete condition” value (isolated platelets) of the same compound?
Answer: facilitates loading of an attached cargo into platelets

Question: What about the “loading into alpha granules of platelets (Alexa647 intensities per ROI)” value [1] of the same compound?
Answer: facilitates loading of an attached cargo into alpha granules of platelets

Question: And the “affinity for chondroitin sulfate A (dissociation constants by ITC)” value [3]?
Answer: high affinity

Question: What about the “relative binding to CSA (dissociation constants by ITC)” value ([3]; PAL1 versus PAL2, FIG. 4B) of the same compound?
Answer: bind CSA tighter than PAL2

Question: And the “loading into alpha-granule subsets” value [5]?
Answer: loaded to both the subsets of alpha-granules

Question: And the “preferred colocalization with alpha-granule subset marker” value [5]?
Answer: colocalized more to the VEGF subset

— patent publication US20240052012A1, “PLATELET ALPHA-GRANULES FOR DELIVERY OF MULTIPLE PROTEINS” (CSTS Health Care Inc., priority 2021, published 2024)
